SMILES strings stand for the structures. A value given as a limit tells only on which side of the number the result lay.

The target in the experiment is T1, Androgen Receptor (AR) (Homo sapiens, UniProt P10275, T878A).
T1 construct: cell based immuno-fluorescence assay using the LNCaP prostate epithelial cell line; endogenous in cells; host or cells: LNCaP clone FGC (ATCC CRL-1740)
T1 sequence (P10275 1-920 T878A): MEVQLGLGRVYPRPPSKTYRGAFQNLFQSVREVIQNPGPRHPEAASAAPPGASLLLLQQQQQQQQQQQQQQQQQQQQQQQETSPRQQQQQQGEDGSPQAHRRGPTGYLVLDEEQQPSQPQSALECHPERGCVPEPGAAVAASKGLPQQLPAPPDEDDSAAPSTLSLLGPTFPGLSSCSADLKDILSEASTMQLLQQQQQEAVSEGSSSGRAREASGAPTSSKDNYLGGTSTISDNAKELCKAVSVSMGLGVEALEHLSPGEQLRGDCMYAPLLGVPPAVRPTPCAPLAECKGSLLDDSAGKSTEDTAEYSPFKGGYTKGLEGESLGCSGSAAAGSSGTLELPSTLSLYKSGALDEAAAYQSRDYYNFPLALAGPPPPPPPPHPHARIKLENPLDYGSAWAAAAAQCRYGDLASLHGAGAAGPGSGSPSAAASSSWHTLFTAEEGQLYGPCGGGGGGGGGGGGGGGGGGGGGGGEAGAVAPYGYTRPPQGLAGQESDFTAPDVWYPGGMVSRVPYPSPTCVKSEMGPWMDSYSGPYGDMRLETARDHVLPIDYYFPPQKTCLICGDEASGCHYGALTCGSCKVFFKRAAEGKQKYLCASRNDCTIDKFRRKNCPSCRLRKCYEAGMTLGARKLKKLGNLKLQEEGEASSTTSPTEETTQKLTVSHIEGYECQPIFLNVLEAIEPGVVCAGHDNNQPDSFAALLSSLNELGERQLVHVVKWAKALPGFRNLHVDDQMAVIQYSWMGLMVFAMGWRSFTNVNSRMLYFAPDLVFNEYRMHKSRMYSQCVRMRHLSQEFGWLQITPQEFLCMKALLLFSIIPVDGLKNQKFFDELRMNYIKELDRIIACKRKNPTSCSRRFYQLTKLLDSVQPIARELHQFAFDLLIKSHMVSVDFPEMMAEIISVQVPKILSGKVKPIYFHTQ
Briefly: LNCaP Androgen Receptor Down-regulation Cell Assay (immunofluorescence end point). The experiment is classed as cell-based. Conditions: LNCaP prostate carcinoma cells, compound incubation 20-22 hours, 50% reduction of the AR signal; read-out: Androgen Receptor Down-regulation Assay (a) IC50/μM. An outline of the steps: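 LNCaP cells in medium with 5% charcoal-stripped FBS were plated overnight, then treated with a compound dilution series for 20-22 h at 37° C. After fixation, permeabilisation and immunostaining, AR-associated green fluorescence was quantified by laser-scanning microplate cytometry; AR down-regulation expressed as IC50 from fitted dose-response curves.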
For the molecule `O=C(c1ccc(OC2CCN(c3ccc4nnc(C(F)(F)F)n4n3)CC2)cc1)N1CC[C@@H](O)C1` [Example 418], the DC50 is more than 14 µM.

On to `O=C(c1ccc(OC2CCN(c3ccc4nnc(C(F)(F)F)n4n3)CC2)cc1)N1CCOCC1` [Example 420], for which the DC50 was 5.9 µM.

For the molecule `O=C(NCCN1CCOCC1)c1ccc(OC2CCN(c3ccc4nnc(C(F)(F)F)n4n3)CC2)cc1` [Example 424], the DC50 came out at 2.2 µM.

As to `COCCN(C)C(=O)c1ccc(OC2CCN(c3ccc4nnc(C(F)(F)F)n4n3)CC2)cc1` [Example 425], the DC50 came to 3.6 µM.

On to `CN1CCC(NC(=O)c2ccc(OC3CCN(c4ccc5nnc(C(F)(F)F)n5n4)CC3)cc2)CC1` [Example 427], for which the DC50 is 4.3 µM.

Take `CN(C)CCNC(=O)c1ccc(OC2CCN(c3ccc4nnc(C(F)(F)F)n4n3)CC2)cc1` [Example 429]: the DC50 was determined as 2.6 µM.

Take `CN(C)CCCOc1ccc(OC2CCN(c3ccc4nnc(C(F)(F)F)n4n3)CC2)cc1` [Example 430, N,N-dimethyl-3-[4-[[1-[3-(trifluoromethyl)-[1,2,4]triazolo[4,3-b]pyridazin-6-yl]piperidin-4-yl]oxy]phenoxy]propan-1-amine]: the DC50 came out at 1.7 µM.

For the molecule `FC(F)(F)c1nnc2ccc(N3CCC(Oc4ccc(OCCN5CCCC5)cc4)CC3)nn12` [Example 431], the DC50 stood at 1.5 µM.

Regarding `FC(F)(F)c1nnc2ccc(N3CCC(Oc4ccc(OCCCN5CCNCC5)cc4)CC3)nn12` [Example 433], the DC50 was 0.9 µM.

In the case of `CN(C)CCOc1ccc(OC2CCN(c3ccc4nnc(C(F)(F)F)n4n3)CC2)cc1` [Example 435], the DC50 came out at 0.98 µM.

Regarding `CN1CCC(Oc2ccc(OC3CCN(c4ccc5nnc(C(F)(F)F)n5n4)CC3)cc2)CC1` [Example 436], the DC50 worked out at 0.75 µM.

Turning to `CN1CCN(CCCOc2ccc(OC3CCN(c4ccc5nnc(C(F)(F)F)n5n4)CC3)cc2)CC1` [Example 437], the DC50 was found to be 0.53 µM.

`FC(F)(F)c1nnc2ccc(N3CCC(Oc4ccc(OCc5ccon5)cc4)CC3)nn12` [Example 438]: the DC50 came out at 1.6 µM.

For the molecule `FC(F)(F)c1nnc2ccc(N3CCC(Oc4ccc(OCc5cnco5)cc4)CC3)nn12` [Example 439], the DC50 turned out to be 0.48 µM.

In the case of `CN1CCN(CCOc2ccc(OC3CCN(c4ccc5nnc(C(F)(F)F)n5n4)CC3)cc2)CC1` [Example 440], the DC50 is 2.3 µM.

`Cn1nccc1CCOc1ccc(OC2CCN(c3ccc4nnc(C(F)(F)F)n4n3)CC2)cc1` [Example 441]: the DC50 was found to be 0.22 µM.

Turning to `Cn1nccc1COc1ccc(OC2CCN(c3ccc4nnc(C(F)(F)F)n4n3)CC2)cc1` [Example 442], the DC50 was determined as 0.44 µM.

Turning to `CN(C)CCCOc1cccc(OC2CCN(c3ccc4nnc(C(F)(F)F)n4n3)CC2)c1` [Example 443], the DC50 came out at 1.5 µM.

Consider `FC(F)(F)c1nnc2ccc(N3CCC(Oc4cccc(OCCCN5CCNCC5)c4)CC3)nn12` [Example 445], for which the DC50 was found to be 1.6 µM.

As for `Cc1cc(COc2cccc(OC3CCN(c4ccc5nnc(C(F)(F)F)n5n4)CC3)c2)no1` [Example 446], the DC50 was 0.7 µM.

With `N#Cc1ccc(OC2CCN(c3ccc4nnc(C(F)(F)F)n4n3)CC2)cn1` [Example 448, 5-[[1-[3-(trifluoromethyl)-[1,2,4]triazolo[4,3-b]pyridazin-6-yl]piperidin-4-yl]oxy]pyridine-2-carbonitrile], the DC50 was 6.3 µM.

Take `N#Cc1cc(OC2CCN(c3ccc4nnc(C(F)(F)F)n4n3)CC2)ccn1` [Example 449, 4-[[1-[3-(trifluoromethyl)[1,2,4]triazolo[4,3-b]pyridazin-6-yl]piperidin-4-yl]oxy]pyridine-2-carbonitrile]: the DC50 came to 4.8 µM.

As for `O=S(=O)(c1ccc(F)cc1)N1CC2CN(c3ccc4nnc(C(F)(F)F)n4n3)CC2C1` (stereo not drawn) [Example 453], the DC50 amounted to 5.7 µM.

For `COc1cccc(S(=O)(=O)N2CC3CN(c4ccc5nnc(C(F)(F)F)n5n4)CC3C2)c1` (stereo not drawn) [Example 454], the DC50 was 9.2 µM.

For `O=S(=O)(c1cccc(F)c1)N1CCCN(c2ccc3nnc(C(F)(F)F)n3n2)CC1` [Example 456], the DC50 was 21 µM.

Regarding `O=S(=O)(c1ccccc1F)N1CCCN(c2ccc3nnc(C(F)(F)F)n3n2)CC1` [Example 460], the DC50 stood at 5.1 µM.

With `COc1ccccc1OCC1CCN(c2ccc3nnc(C(F)(F)F)n3n2)CC1` [Example 462], the DC50 came to 7.7 µM.

Take `Fc1ccc(OCC2CCN(c3ccc4nnc(C(F)(F)F)n4n3)CC2)cc1` [Example 463]: the DC50 turned out to be 0.98 µM.

Regarding `Fc1cccc(OCC2CCN(c3ccc4nnc(C(F)(F)F)n4n3)CC2)c1` [Example 464], the DC50 was found to be 1.4 µM.

On to `COc1cccc(OCC2CCN(c3ccc4nnc(C(F)(F)F)n4n3)CC2)c1` [Example 466], for which the DC50 was more than 19 µM.

In the case of `Fc1ccccc1OCC1CCN(c2ccc3nnc(C(F)(F)F)n3n2)CC1` [Example 467], the DC50 is 4.9 µM.

Consider `FC(F)(F)c1ccc(OCC2CCN(c3ccc4nnc(C(F)(F)F)n4n3)CC2)cc1` [Example 468], for which the DC50 is more than 11 µM.

Turning to `N#Cc1ccccc1OCC1CCN(c2ccc3nnc(C(F)(F)F)n3n2)CC1` [Example 469], the DC50 was 1.8 µM.

With `FC(F)(F)c1nnc2ccc(N3CCC(COc4ccc(Cl)cc4)CC3)nn12` [Example 470], the DC50 was 4.6 µM.

As for `FC(F)(F)c1ccccc1OCC1CCN(c2ccc3nnc(C(F)(F)F)n3n2)CC1` [Example 471], the DC50 was 2 µM.

As to `FC(F)(F)c1nnc2ccc(N3CCC(COc4cccc(Cl)c4)CC3)nn12` [Example 473], the DC50 was 3.2 µM.

For `N#Cc1ccc(OCC2CCN(c3ccc4nnc(C(F)(F)F)n4n3)CC2)cc1` [Example 474], the DC50 is 0.96 µM.

On to `FC(F)(F)c1nnc2ccc(N3CCC(COc4ccccc4Cl)CC3)nn12` [Example 475], for which the DC50 was more than 15 µM.

On to `N#Cc1cccc(OCC2CCN(c3ccc4nnc(C(F)(F)F)n4n3)CC2)c1` [Example 476], for which the DC50 is 3.5 µM.

On to `FC(F)(F)c1nnc2ccc(N3CCN(Cc4c[nH]c5cnccc45)CC3)nn12` [Example 477], for which the DC50 came to 6.3 µM.

On to `FC(F)(F)c1nnc2ccc(N3CCN(Cc4c[nH]c5ccncc45)CC3)nn12` [Example 480], for which the DC50 was 9.6 µM.

As for `FC(F)(F)c1nnc2ccc(N3CCC(COC4COC4)CC3)nn12` [Example 481], the DC50 stood at 6.6 µM.

For the molecule `FC(F)(F)COCC1CCN(c2ccc3nnc(C(F)(F)F)n3n2)CC1` [Example 482], the DC50 came to 1.8 µM.

`Fc1cccc(OC2CN(c3ccc4nnc(C(F)(F)F)n4n3)C2)c1` [Example 483, 6-[3-(3-fluorophenoxy)azetidin-1-yl]-3-(trifluoromethyl)[1,2,4]triazolo[4,3-b]pyridazine]: the DC50 was more than 30 µM.

Consider `Fc1ccc(OC2CN(c3ccc4nnc(C(F)(F)F)n4n3)C2)cc1` [Example 484], for which the DC50 is more than 14 µM.

For `COc1ccc(OC2CN(c3ccc4nnc(C(F)(F)F)n4n3)C2)cc1` [Example 486], the DC50 was more than 13 µM.

For `CC(C)(C)OCC1CCN(c2ccc3nnc(C(F)(F)F)n3n2)CC1` [Example 489, 6-[4-(tert-butoxymethyl)piperidin-1-yl]-3-(trifluoromethyl)[1,2,4]triazolo[4,3-b]pyridazine], the DC50 amounted to 3.6 µM.

With `Fc1cccc(OCC2CN(c3ccc4nnc(C(F)(F)F)n4n3)C2)c1` [Example 490], the DC50 came to 5.9 µM.

For the molecule `Fc1cccc(OCC2CN(c3ccc4nnc(C(F)(F)F)n4n3)C2)c1` [Example 491], the DC50 worked out at 7.2 µM.

Turning to `FC(F)(F)c1nnc2ccc(N3CC(COc4cccnc4)C3)nn12` [Example 492], the DC50 was more than 30 µM.

`COc1ccc2[nH]cc(C3CCN(c4ccc5nnc(C(F)(F)F)n5n4)CC3)c2c1` [Example 494, 6-[4-(5-methoxy-1H-indol-3-yl)piperidin-1-yl]-3-(trifluoromethyl)[1,2,4]triazolo[4,3-b]pyridazine]: the DC50 came to 0.43 µM.

In the case of `N#Cc1ccc2[nH]cc(C3CCN(c4ccc5nnc(C(F)(F)F)n5n4)CC3)c2c1` [Example 495, 3-[1-[3-(trifluoromethyl)[1,2,4]triazolo[4,3-b]pyridazin-6-yl]piperidin-4-yl]-1H-indole-5-carbonitrile], the DC50 came to 0.35 µM.

For the molecule `CN1CCN(C(=O)c2ccc3[nH]cc(C4CCN(c5ccc6nnc(C(F)(F)F)n6n5)CC4)c3c2)CC1` [Example 497], the DC50 turned out to be 2.8 µM.

As for `COCCNC(=O)c1ccc2[nH]cc(C3CCN(c4ccc5nnc(C(F)(F)F)n5n4)CC3)c2c1` [Example 498], the DC50 came to 2.4 µM.

The values are drawn from US8003649B2 (AstraZeneca AB, priority 2007, dated 2011).
